Assay results from ChEMBL document CHEMBL1201862, “PubChem BioAssay data set” (2004).
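Dose response: 5 concentrations. Exposure: 48 h. Format: 96-well plates. Endpoint: linear interpolation; highest concentration if not reached. Here, GI50 denotes the concentration required for 50% inhibition of growth.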 The source made the active and inactive calls. Rule as the data show it: active = GI50 up to about 1.1 µM and inactive = higher.

Legend:
Assay in all cases: inhibition of tumour cell growth, NCI panel, 48 h
OVCAR-8 = test system: OVCAR-8
786-0 = test system: 786-0
SF-295 = test system: SF-295
NCI-H460 = test system: NCI-H460
NCI-H226 = test system: NCI-H226
EKVX = test system: EKVX
NCI-H522 = test system: NCI-H522
IGROV-1 = test system: IGROV-1
HCC 2998 = test system: HCC 2998
CAKI-1 = test system: CAKI-1
ACHN = test system: ACHN
NCI-H23 = test system: NCI-H23
SK-OV-3 = test system: SK-OV-3
SK-MEL-2 = test system: SK-MEL-2
HL-60 = test system: HL-60
LOX IMVI = test system: LOX IMVI

| Compound | GI50 (OVCAR-8) | GI50 (786-0) | GI50 (SF-295) | GI50 (NCI-H460) | GI50 (NCI-H226) | GI50 (EKVX) | GI50 (NCI-H522) | GI50 (IGROV-1) | GI50 (HCC 2998) | GI50 (CAKI-1) | GI50 (ACHN) | GI50 (NCI-H23) | GI50 (SK-OV-3) | GI50 (SK-MEL-2) | GI50 (HL-60) | GI50 (LOX IMVI) |
| --- | --- | --- | --- | --- | --- | --- | --- | --- | --- | --- | --- | --- | --- | --- | --- | --- |
| Clc1ccc(CCc2ccncn2)c(Cl)c1 | 97.3 µM (inactive) | > 100 µM (inactive) | 61.4 µM (inactive) | > 100 µM (inactive) | 60.5 µM (inactive) | 9.68 µM (inactive) | 37.7 µM (inactive) | > 100 µM (inactive) | > 100 µM (inactive) | 50.2 µM (inactive) | > 100 µM (inactive) | 49.3 µM (inactive) | > 100 µM (inactive) | > 100 µM (inactive) | 30.1 µM (inactive) | > 100 µM (inactive) |
| Oc1nc(-c2ccccc2)cc(-c2ccccc2O)n1 | > 100 µM (inactive) | > 100 µM (inactive) | > 100 µM (inactive) | 87.5 µM (inactive) | > 100 µM (inactive) | 6.71 µM (inactive) | 69.3 µM (inactive) | > 100 µM (inactive) | > 100 µM (inactive) | 76.2 µM (inactive) | 67.6 µM (inactive) | > 100 µM (inactive) | > 100 µM (inactive) | – | 79.1 µM (inactive) | 51.5 µM (inactive) |
| CC12CC3(C)CC(C)(C1)CC(N=[N+]=[N-])(C2)C3 | > 100 µM (inactive) | > 100 µM (inactive) | > 100 µM (inactive) | > 100 µM (inactive) | > 100 µM (inactive) | > 100 µM (inactive) | > 100 µM (inactive) | > 100 µM (inactive) | > 100 µM (inactive) | > 100 µM (inactive) | > 100 µM (inactive) | > 100 µM (inactive) | > 100 µM (inactive) | > 100 µM (inactive) | – | > 100 µM (inactive) |
| COc1ccc(CC/N=C2\CCC(C(=O)NCCc3ccc(OC)c(OC)c3)N2)cc1OC (stereo not drawn) | > 100 µM (inactive) | > 100 µM (inactive) | > 100 µM (inactive) | > 100 µM (inactive) | > 100 µM (inactive) | > 100 µM (inactive) | > 100 µM (inactive) | > 100 µM (inactive) | > 100 µM (inactive) | > 100 µM (inactive) | > 100 µM (inactive) | > 100 µM (inactive) | > 100 µM (inactive) | > 100 µM (inactive) | > 100 µM (inactive) | > 100 µM (inactive) |
| C/C(=N/N(C=O)C[n+]1ccccc1)C(CN(CC(C)C)CC(C)C)C(=O)Nc1ccc(C)cc1C (stereo not drawn) | > 100 µM (inactive) | > 100 µM (inactive) | 71.8 µM (inactive) | > 100 µM (inactive) | – | 17.8 µM (inactive) | > 100 µM (inactive) | > 100 µM (inactive) | > 100 µM (inactive) | 55.1 µM (inactive) | 94.2 µM (inactive) | > 100 µM (inactive) | > 100 µM (inactive) | > 100 µM (inactive) | 73.1 µM (inactive) | – |
| CCN(CC)CCOc1ccc(CCc2cc(OC)c(OC)c(OC)c2)cc1 | 67.9 µM (inactive) | 37.1 µM (inactive) | 18.4 µM (inactive) | 38.5 µM (inactive) | 45 µM (inactive) | 65.3 µM (inactive) | 20 µM (inactive) | > 100 µM (inactive) | – | 53.2 µM (inactive) | 50.4 µM (inactive) | – | – | – | 18.9 µM (inactive) | 13.9 µM (inactive) |
| Cc1nc2ccccc2c(=O)n1/N=C(\N=N\c1cc(Cl)ccc1Cl)c1ccc(N(C)C)cc1 | 40.9 µM (inactive) | 73.5 µM (inactive) | – | 45.7 µM (inactive) | – | 45.3 µM (inactive) | 25 µM (inactive) | 49.9 µM (inactive) | – | 34 µM (inactive) | 71.8 µM (inactive) | 34.8 µM (inactive) | 28.2 µM (inactive) | – | 22.9 µM (inactive) | 63.4 µM (inactive) |
| COc1ccc(/C(=C/n2ccnc2)C(=O)c2ccc(OC)c(OC)c2)cc1 | > 100 µM (inactive) | > 100 µM (inactive) | – | > 100 µM (inactive) | > 100 µM (inactive) | > 100 µM (inactive) | > 100 µM (inactive) | – | > 100 µM (inactive) | > 100 µM (inactive) | > 100 µM (inactive) | > 100 µM (inactive) | – | > 100 µM (inactive) | > 100 µM (inactive) | > 100 µM (inactive) |
| O=C1c2cccc([N+](=O)[O-])c2C(=O)c2nccnc21 | 2.25 µM (inactive) | 1.78 µM (inactive) | 1.82 µM (inactive) | 1.46 µM (inactive) | 1.94 µM (inactive) | 1.81 µM (inactive) | 1.36 µM (inactive) | – | 2.62 µM (inactive) | 4.86 µM (inactive) | 3.19 µM (inactive) | 1.25 µM (inactive) | – | 1.45 µM (inactive) | 2.15 µM (inactive) | 1.04 µM (active) |
| CC(=O)N(/N=C\c1ccc([N+](=O)[O-])cc1)c1ccccc1 | > 100 µM (inactive) | > 100 µM (inactive) | > 100 µM (inactive) | > 100 µM (inactive) | > 100 µM (inactive) | > 100 µM (inactive) | – | > 100 µM (inactive) | > 100 µM (inactive) | > 100 µM (inactive) | > 100 µM (inactive) | > 100 µM (inactive) | > 100 µM (inactive) | > 100 µM (inactive) | – | > 100 µM (inactive) |
| Cc1c[nH]c2c1C13CC1CN(C(=O)c1cc4cc(NC(=O)c5cc6ccccc6o5)ccc4[nH]1)C3=CC2=O (stereo not drawn) | < 0.001 µM (active) | < 0.001 µM (active) | < 0.001 µM (active) | < 0.001 µM (active) | < 0.001 µM (active) | – | < 0.001 µM (active) | – | < 0.001 µM (active) | < 0.001 µM (active) | < 0.001 µM (active) | < 0.001 µM (active) | – | < 0.001 µM (active) | – | < 0.001 µM (active) |
| CCCCCCCCCCCCCCCC/C(C(=O)OC)=C(/O)C(=O)OCC | > 100 µM (inactive) | > 100 µM (inactive) | > 100 µM (inactive) | > 100 µM (inactive) | > 100 µM (inactive) | – | > 100 µM (inactive) | > 100 µM (inactive) | > 100 µM (inactive) | > 100 µM (inactive) | 70.5 µM (inactive) | > 100 µM (inactive) | > 100 µM (inactive) | 68.9 µM (inactive) | > 100 µM (inactive) | > 100 µM (inactive) |
| O=C1C(c2ccccc2)=C(c2ccccc2)C(c2ccc(Sc3ccc(C4=C(c5ccccc5)C(=O)C(c5ccccc5)=C4c4ccccc4)cc3)cc2)=C1c1ccccc1 | > 100 µM (inactive) | > 100 µM (inactive) | > 100 µM (inactive) | > 100 µM (inactive) | > 100 µM (inactive) | > 100 µM (inactive) | > 100 µM (inactive) | > 100 µM (inactive) | – | > 100 µM (inactive) | – | > 100 µM (inactive) | > 100 µM (inactive) | > 100 µM (inactive) | > 100 µM (inactive) | > 100 µM (inactive) |
| O=C(O)c1ccc(C2C(=O)N[C@@H]3CCC[C@H]23)cc1 (stereo partly drawn) | > 100 µM (inactive) | > 100 µM (inactive) | > 100 µM (inactive) | > 100 µM (inactive) | > 100 µM (inactive) | > 100 µM (inactive) | > 100 µM (inactive) | > 100 µM (inactive) | > 100 µM (inactive) | > 100 µM (inactive) | – | > 100 µM (inactive) | > 100 µM (inactive) | > 100 µM (inactive) | > 100 µM (inactive) | > 100 µM (inactive) |
| COc1ccc(C2C(N)=NCC2c2ccccn2)cc1 (stereo not drawn) | > 100 µM (inactive) | > 100 µM (inactive) | > 100 µM (inactive) | > 100 µM (inactive) | > 100 µM (inactive) | > 100 µM (inactive) | > 100 µM (inactive) | > 100 µM (inactive) | > 100 µM (inactive) | > 100 µM (inactive) | > 100 µM (inactive) | > 100 µM (inactive) | > 100 µM (inactive) | > 100 µM (inactive) | – | > 100 µM (inactive) |
| CCOC(=O)C1=C(Nc2ccc(Cl)c(Cl)c2)OC/C1=N\NS(=O)(=O)c1ccc(C)cc1 | 75.2 µM (inactive) | > 100 µM (inactive) | > 100 µM (inactive) | 34.3 µM (inactive) | 27.3 µM (inactive) | 58.1 µM (inactive) | 29 µM (inactive) | 68.9 µM (inactive) | 33.5 µM (inactive) | 44.2 µM (inactive) | – | 34.7 µM (inactive) | 75.7 µM (inactive) | 29.6 µM (inactive) | 27.9 µM (inactive) | 9.48 µM (inactive) |
| Oc1ccc2occ3c2c1CCC3 | > 100 µM (inactive) | > 100 µM (inactive) | > 100 µM (inactive) | > 100 µM (inactive) | – | 72.6 µM (inactive) | – | > 100 µM (inactive) | > 100 µM (inactive) | > 100 µM (inactive) | > 100 µM (inactive) | > 100 µM (inactive) | > 100 µM (inactive) | – | 44.4 µM (inactive) | > 100 µM (inactive) |
| C(CCC[Te][Te]CCCCCCOC1CCCCO1)CCOC1CCCCO1 (stereo not drawn) | 16 µM (inactive) | 15.5 µM (inactive) | 15.9 µM (inactive) | 14.8 µM (inactive) | – | – | – | 16.5 µM (inactive) | 14.1 µM (inactive) | 12.6 µM (inactive) | 10.6 µM (inactive) | 12.4 µM (inactive) | 39.6 µM (inactive) | 13.3 µM (inactive) | 8.69 µM (inactive) | 13.6 µM (inactive) |
| COC(=O)C(C(=O)C(=O)Nc1ccccc1C(C)=O)c1nc2ccc(Cl)cc2nc1O (stereo not drawn) | > 100 µM (inactive) | > 100 µM (inactive) | > 100 µM (inactive) | > 100 µM (inactive) | 78.3 µM (inactive) | 56.9 µM (inactive) | – | > 100 µM (inactive) | > 100 µM (inactive) | > 100 µM (inactive) | > 100 µM (inactive) | > 100 µM (inactive) | > 100 µM (inactive) | > 100 µM (inactive) | > 100 µM (inactive) | > 100 µM (inactive) |
